Test [1] deals with SARS-CoV-2 (USA-WA1/2020 variant). The test is described as follows: Cytopathic effect (CPE) live virus cell viability assay in Vero-E6 cells. Type of test: cell-based. To be noted: for EC50: Severe acute respiratory syndrome coronavirus 2, Vero C1008, 96 h, read-out: EC50 viral CPE assay. On the technique in general: Cytopathic effects are the visible damage that an infection or toxin causes in cultured cells.

The next test addresses SARS-CoV-2 Mpro (Severe acute respiratory syndrome coronavirus 2, UniProt P0DTC1). The test is described as follows: biochemical. The format is biochemical.

Bounds are passed on as bounds.

A word on the EC50: it is the midpoint of the concentration-response curve. Usually IC50 stands for the concentration at which inhibition is half-maximal. Higher therefore signals weaker potency. Consider `CC(C)C[C@H](NC(=O)OCc1ccccc1)C(=O)N[C@@H](C[C@@H]1CCNC1=O)C(O)S(=O)(=O)O` (some centres unmarked) [GC-376, reference compound], for which the EC50 in test [1] came out at 1.8 ± 0.4 µM. The same molecule yielded an IC50 against SARS-CoV-2 Mpro of 18 ± 1.5 nM. Besides, on SARS-CoV-2 Mpro (Mpro enzymatic assay), the “time to achieve maximum inhibition” value was no more than 10 min.
Take `O=C(CN1C(=O)[C@@H](NC(=O)c2ccc3ccccc3n2)COc2ccccc21)N[C@@H](C[C@@H]1CCNC1=O)C(=O)COC(=O)c1c(Cl)cccc1Cl` [Compound 20]: the EC50 in test [1] came to 44.5 ± 7.4 µM. On SARS-CoV-2 Mpro, this molecule showed an IC50 of 580 ± 40 nM.
Take `COc1cccc2[nH]c(C(=O)N[C@@H](CC(C)C)C(=O)N[C@@H](C[C@@H]3CCNC3=O)C(=O)COC(=O)c3c(Cl)cccc3Cl)cc12` [Compound 18, reference compound]: the EC50 in test [1] was determined as 3.4 ± 1.4 µM. This molecule gave an IC50 at SARS-CoV-2 Mpro of 11 ± 0.7 nM.
The matching figures for `O=C(CN1C(=O)[C@@H](NC(=O)c2ccccc2)COc2ccccc21)N[C@@H](C[C@@H]1CCNC1=O)C(=O)COC(=O)c1c(Cl)cccc1Cl` [Compound 19]: 25 ± 5 µM and 620 ± 48 nM.
Broadly, the inhibition is the percentage by which the read-out fell short of the control. Turning to `O=C(CN1C(=O)C(NC(=O)OCc2ccccc2)COc2ccccc21)NC(CC1CCNC1=O)C(=O)COC(=O)c1c(Cl)cccc1Cl` (centres unmarked) [Compound 1], in test [1], the “fold reduced in activity compared to 18” value worked out at 2.2 fold, the “fold reduced in activity compared to GC-376” value came out at 4.1 fold and the EC50 amounted to 7.5 ± 2 µM. Also, the inhibition at 5 µM in test [1] (Severe acute respiratory syndrome coronavirus 2, Vero C1008, single treatment, 5 µM of 1, 96 h, three independent experiments, read-out: inhibition of CPE in infected cells) was found to be 19.5 ± 13.7%. On SARS-CoV-2 Mpro, this molecule gave an IC50 of 230 ± 18 nM. The “fold less potent (Mpro) than compound 18” value on SARS-CoV-2 Mpro (ratio of Mpro IC50 versus Pfizer lead compound 18) is ~ 20 fold.
As for `O=C(CN1C(=O)[C@@H](NC(=O)OCc2ccccc2)COc2ccccc21)N[C@@H](C[C@@H]1CCNC1=O)C(=O)COc1cc(C(F)(F)F)nn1-c1ccc(F)cc1` [Compound 21], the half-maximal effective concentration (EC50) in test [1] was determined as 73.5 ± 12.4 µM. Moreover, at SARS-CoV-2 Mpro, the IC50 amounted to 3100 nM. Besides, at SARS-CoV-2 Mpro (ratio of Mpro IC50 versus compound 1), the “fold less Mpro activity compared to 1” value is given as “more than 10 fold”.
`CCC(CC)COC(=O)[C@H](C)N[P@](=O)(OC[C@H]1O[C@@](C#N)(c2ccc3c(N)ncnn23)[C@H](O)[C@@H]1O)Oc1ccccc1` [Remdesivir, reference compound]: the EC50 in test [1] was 2.7 ± 0.5 µM. In addition, the inhibition at 1 µM in test [1] (Severe acute respiratory syndrome coronavirus 2, Vero C1008, single treatment, 1 µM of remdesivir, 96 h, three independent experiments, read-out: inhibition of CPE in infected cells) was 3.6 ± 3.1%.

Values taken from PMC11459967 (Antimicrobial Agents and Chemotherapy, 2024).
